Measurements: patent publication US10286022B2, “Medicinal composition of extract of seed of emblica officinalis and method of preparing the same” (priority 2013, dated 2019)

How the values were obtained:
[1] = system: streptozotocin induced diabetic rats; assay: Antidiabetic activity in streptozotocin induced diabetic rats (Example 22); format: in vivo, rat
Method: The amla seed extract as prepared in example 1 was evaluated for antidiabetic activity in experimental rats. Male/Female albino wistar rats were maintained as per standard guidelines: housed in polypropylene cages, under 12 hour artificial light and dark cycles at a temperature of 24±2° C., given a standard pellet diet and water ad libitum. The animals were acclimatized to the animal house conditions for a week before beginning the experiment. Diabetes was induced by injecting streptozotocin 35 mg/kg dissolved in 0.1M citrate buffer of pH 4.5, intra-peritoneally. […] Animals with FBG above 200 mg/dl were considered diabetic. The diabetic animals were randomly divided into three groups of six animals each. […] The plasma CRP level was measured initially and then at Day 28 of the study.

HMG-CoA Reductase (HMGR) = molecular target: T1, HMG-CoA Reductase (HMGR) (Homo sapiens, UniProt P04035); assay: HMG-CoA reductase inhibition assay (Example 30); format: biochemical; settings: read-out: % Inhibition over control
T1 sequence (P04035 426-888 limits assumed): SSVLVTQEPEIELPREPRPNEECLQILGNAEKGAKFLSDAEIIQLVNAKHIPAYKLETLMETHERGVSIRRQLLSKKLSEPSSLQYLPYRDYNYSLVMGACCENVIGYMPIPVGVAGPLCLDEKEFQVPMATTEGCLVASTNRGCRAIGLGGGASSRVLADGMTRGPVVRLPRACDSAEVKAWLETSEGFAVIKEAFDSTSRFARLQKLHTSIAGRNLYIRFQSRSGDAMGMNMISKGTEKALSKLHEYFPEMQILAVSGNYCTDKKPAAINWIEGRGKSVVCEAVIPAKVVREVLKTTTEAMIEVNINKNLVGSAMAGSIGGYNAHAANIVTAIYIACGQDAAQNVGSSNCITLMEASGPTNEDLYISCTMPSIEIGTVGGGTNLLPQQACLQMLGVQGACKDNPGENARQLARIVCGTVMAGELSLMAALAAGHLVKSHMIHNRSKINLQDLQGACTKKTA
Method: Amla seed extract prepared as per example 1 and water extract of dried Amla seed prepared as per example 8 was weighed separately and each extract was dissolved in dimethyl sulfoxide (DMSO) to prepare a stock of 400 mg/ml stock solution of each. From this stock, different dose levels were prepared in DMSO for further experimental use. […] The optical density (OD) values were recorded using spectrophotometer at regular time intervals. […] Based on the specific activity values from all the test doses, EC50 (Effective Concentration 50) were determined by plotting a curve between Specific activity Vs. Test concentration. EC50 values (μg/ml) and IC50 (μM) were determined by interpolation method by using Graph pad prism, version 5.01.

SMILES | Fasting Blood Glucose level Day 7 ([1]; 0.5 mg/kg for 28 days) | Fasting Blood Glucose level Day 14 ([1]; 0.5 mg/kg for 28 days) | Fasting Blood Glucose level Day 21 ([1]; 0.5 mg/kg for 28 days) | Fasting Blood Glucose level Day 28 ([1]; 0.5 mg/kg for 28 days) | effect on blood glucose level ([1]; 0.5 mg/kg for 28 days) | Fasting Blood Glucose level Day 1 (Initial) ([1]; 0.5 mg/kg for 28 days group) | effect on CRP level ([1]; 0.5 mg/kg for 28 days, compared to initial CRP value) | CRP level Day 28 (Final) ([1]; plasma, 0.5 mg/kg for 28 days) | CRP level Day 1 (Initial) ([1]; plasma, 0.5 mg/kg for 28 days group) | inhibition at 2.5 µM (HMG-CoA Reductase (HMGR); test concentration 2.5 μM) | inhibition at 5 µM (HMG-CoA Reductase (HMGR); test concentration 5 μM) | inhibition at 10 µM (HMG-CoA Reductase (HMGR); test concentration 10 μM) | inhibition at 20 µM (HMG-CoA Reductase (HMGR); test concentration 20 μM) | inhibition at 40 µM (HMG-CoA Reductase (HMGR); test concentration 40 μM) | inhibition at 60 µM (HMG-CoA Reductase (HMGR); test concentration 60 μM) | inhibition at 80 µM (HMG-CoA Reductase (HMGR); test concentration 80 μM) | inhibition at 100 µM (HMG-CoA Reductase (HMGR); test concentration 100 μM)
COc1ccc(Cl)cc1C(=O)NCCc1ccc(S(=O)(=O)NC(=O)NC2CCCCC2)cc1 [Glibenclamide] | 211 mg/dL | 179 mg/dL | 136 mg/dL | 109 mg/dL | decreased the blood glucose level to nearly normal | 406 mg/dL | failed to decrease the CRP level significantly | 9.6 mg/L | 10.8 mg/L | – | – | – | – | – | – | – | –
CC[C@H](C)C(=O)O[C@H]1C[C@@H](C)C=C2C=C[C@H](C)[C@H](CC[C@@H]3C[C@@H](O)CC(=O)O3)[C@H]21 [LOVASTATIN, lovastatin] | – | – | – | – | – | – | – | – | – | 37% | 37.6% | 37.7% | 41.5% | 55.6% | 76.5% | 86.6% | 98.5%
